# From US12263144B2, “Methods of treating IgA nephropathy with thiol-containing molecules” (Accubit LLC—Biotechnology, priority 2020, dated 2025)
# Assays:
# Type in all cases: biochemical
# [1] = target: T1, human IgA1 (poly-IgA1) (Homo sapiens, UniProt P01876); assay: SEC of native human IgA1 treated ex vivo; details: IgA1 from pooled plasma of IgA nephropathy patients, different concentrations, FIG. 5 C
# T1 construct: human IgA1 whole molecule was purified from pooled plasma of IgA nephropathy patients; from tissue
# T1 sequence (P01876 1-353 isoform P01876-1): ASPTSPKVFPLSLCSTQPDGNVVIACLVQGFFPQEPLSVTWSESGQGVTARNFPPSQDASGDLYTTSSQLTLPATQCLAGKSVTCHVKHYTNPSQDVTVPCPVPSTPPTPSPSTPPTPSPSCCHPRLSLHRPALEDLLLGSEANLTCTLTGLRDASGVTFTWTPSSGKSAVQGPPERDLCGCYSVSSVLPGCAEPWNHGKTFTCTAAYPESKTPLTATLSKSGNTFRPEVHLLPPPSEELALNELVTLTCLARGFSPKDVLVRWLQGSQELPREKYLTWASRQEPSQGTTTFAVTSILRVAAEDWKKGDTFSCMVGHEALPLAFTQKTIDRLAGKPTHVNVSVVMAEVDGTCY
# From the text: IgA1 from IgA nephropathy patient sera was purified by Jacalin (Thermo Scientific, USA)-directed affinity chromatography. Poly-IgA1 contents were further enriched via running Superdex 200 Increase gel filtration molecular sieve (GE Biosciences) and collecting high-molecular weight fractions from an AKTA protein purification system (GE Biosciences). Human serum from healthy donors was purchased from Sigma-Aldrich and total IgA1 was also purified by running Jacalin-directed chromatography. Purified total IgA1 was used for injecting mice.
# (§1) The overall complex size of IgA aggregates was determined either by size-exclusion chromatography (SEC: Superdex 200 Increase 10/300 by GL Cytiva), or by SDS-PAGE. For evaluating the involvement of intermolecular disulfide connectivity in IgA complexes, IgA samples were treated with either reducing agents, such as DTT, TCEP or reduced glutathione (Sigma), or interventional drugs, such as cysteamine (Sigma), WR-1065 (Sigma) and N-Acetyl-L-cysteine (VWR Chemicals) in phosphate-buffered saline (PBS) pH7.4. Before running on SEC, samples were treated with the drugs at indicated concentrations at 37° C. for one hour.
# (§2) In the meantime, the SEC column was also equilibrated with PBS supplemented with the reducing agent at the same concentration. For running SEC, 100 μL of the recombinant IgA (concentration varies between 1 mg/mL and 8 mg/mL) or purified native human IgA1 (˜1 mg/mL) was loaded to the column and UV absorption was recorded following elution. Recombinant IgA typically formed two elution peaks: a minor peak of ˜800 kDa poly-rIgA followed by a major peak of ˜170 kDa of monomeric rIgA. The ratios between poly-rIgA and mono-rIgA were calculated as between the corresponding areas under the curve (AUC), and the treatment effect of the thiol agents was judged by the reduction of the poly-rIgA level with a compensatory increase of the mono-rIgA content.
# In addition, human IgA1 whole molecule was purified from pooled plasma of IgA nephropathy patients and subjected the sample to different concentrations of cysteamine (FIG. 5, part C). […]
# [2] = tested on: Rat rIgA (poly-rIgA); assay: SEC determination of poly- and mono-rIgA content of rat rIgA after treatment; details: 1 h 37° C., PBS, SEC AUC
# Method: as §1
# as §2, with “Recombinant IgA typically formed two elution peaks: a minor peak of ˜800 kDa poly-rIgA followed by a major peak of ˜170 kDa of monomeric rIgA.” left out
# To further investigate specific cysteine residue(s) involved in IgA complexes, expression vectors were constructed to produce recombinant IgA (rIgA) Fc segments of rat and human sequences (FIG. 2, part A) as discussed above. Rat IgA analogs were expressed in BL21 DE3 strain of E. coil and recombinant protein were purified from the bacterial lysate using Histrap HP columns (GE Healthcare) by running fast protein liquid chromatography (FPLC). Human recombinant IgA mimetics were produced from human embryo kidney (HEK293) cells by transfection of the expressing plasmids. Recombinant IgA proteins expressed by the cells were secreted into the culture medium, and they were subsequently purified by Histrap HP columns by FPLC using standard procedures. […] Rat rIgA was produced from bacterial expression as discussed above.
# Cysteamine (Cy), an aminothiol that can react with cysteine, is both a natural metabolite produced in mammalian cells and a clinical drug used for treatment of cystinosis. In cystinosis, cysteamine reduces the disulfide bond in cystine, which is the oxidated dimer of amino acid cysteine (FIG. 4, part A). In the context of cysteine residues in proteins, endogenous cysteamine as well as the therapeutic drug forms mixed disulfides with susceptible cysteine sulfhydryl groups in a process called cysteamination (FIG. 4, part B). It was sought to determine whether cysteamine could reduce Cys471-disulfides to disaggregate poly-IgA. Rat rIgA (SEQ ID NO.4) was treated with various concentrations of cysteamine for one hour at 37° C. in phosphate buffered saline at neutral pH and the protein complexes were analyzed by SEC. The SEC column (model: Superdex 200 Increase 10/300 GL by Cytiva) was preequilibrated with the same buffer supplemented with the same concentration of cysteamine.
# [3] = tested on: natural IgA1 assembly (two heavy chains and two light chains connected via disulfide bonds); assay: Ex vivo study: integrity of natural IgA assembly under thiol/reducing agents
# Method: as §1
# Proteins in sample buffer (Bio-Rad Laboratories, Hercules, CA, USA) with or without TCEP (for reducing or nonreducing condition, respectively) were resolved by 4-12% SDS-PAGE (Bio-Rad Laboratories). IgA bands were subsequently visualized either by staining with GelCode Blue (Thermo Fisher Scientific), or by Western blotting on PVDF membrane. For Western blotting, 5% non-fat milk was used in blocking for one hour at room temperature. The membrane was then incubated with mouse anti-Histag antibody (Thermo Scientific), or HRP-conjugated goat anti-rat IgA α-chain antibody (Cat. ab97185, Abcam, UK), or goat anti-human IgA HRP antibody (Cat: 2050-05, SouthernBiotech) for detecting rat or human IgA (Fc), respectively. The membrane was developed using the Clarity™ ECL substrate (Bio-Rad Laboratories, CA, USA).
# [4] = target: T2, Human rIgA1 (poly-rIgA) (Homo sapiens, UniProt P01876); assay: SEC of human rIgA (HEK293-produced) after treatment; details: human rIgA from HEK293 cells, FIG. 5 B
# T2 construct: IL-2 signal peptide (N, cleaved yes); 6xHis (N); made in house; host or cells: HEK293
# T2 sequence (P01876 121-353 isoform P01876-1): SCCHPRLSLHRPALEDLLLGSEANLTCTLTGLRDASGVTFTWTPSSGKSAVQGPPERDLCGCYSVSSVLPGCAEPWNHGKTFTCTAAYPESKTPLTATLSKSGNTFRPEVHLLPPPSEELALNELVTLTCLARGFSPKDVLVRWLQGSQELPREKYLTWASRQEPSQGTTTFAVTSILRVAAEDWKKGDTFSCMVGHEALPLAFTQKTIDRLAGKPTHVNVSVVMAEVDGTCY
# Method: as §1
# as §2, with “content. […]” for “content.”
compound,measurement,setting,value
NCCS [cysteamine],poly-IgA1 amount (SEC),[1],reduced the amounts of poly-IgA1
same,Mono-IgA (%),[2]; cysteamine 0.1 mM,81.85%
same,Poly-IgA (%),[2]; cysteamine 0.1 mM,18.15%
same,Mono-IgA (%),[2]; cysteamine 1 mM,89.57%
same,Poly-IgA (%),[2]; cysteamine 1 mM,10.43%
same,Mono-IgA (%),[2]; cysteamine 5 mM,93.59%
same,Poly-IgA (%),[2]; cysteamine 5 mM,6.414%
same,Mono-IgA (%),[2]; cysteamine 10 mM,93.24%
same,Poly-IgA (%),[2]; cysteamine 10 mM,6.759%
same,disruption of natural IgA assembly / normal pairing of IgA heavy chains,[3],did not cause unwanted disruption of natural IgA1 assembly
same,poly-rIgA level (SEC),[4],reduction of poly-rIgA levels
